Results on three molecules are retold here after BindingDB's records for doi:10.1016/s0960-894x(01)00003-8 (Shionogi, 2001).

A short description of the assay: Concentration required to inhibit human Cytosolic phospholipase A2.
`CCCCC/C=C\C/C=C\C/C=C\C/C=C\CCCC(=O)C(F)(F)F` [Arachidonyltrifluoromethane] had an IC50 of 420 nM.

`O=C1N=C(O)SC1=Cc1ccc(C(=O)NC[C@@H]2C[C@@H](OCc3ccccc3-c3ccccc3)CN2C(=O)c2ccccc2C(=O)c2ccccc2)cc1` [N-[(2S,4R)-1-(2-Benzoyl-benzoyl)-4-(biphenyl-2-ylmethoxy)-pyrrolidin-2-ylmethyl]-4-[2,4-dioxo-thiazolidin-(5Z)-ylidenemethyl]-benzamide] showed a concentration for half-maximal inhibition (IC50) of 165 nM.

On to `O=C1N=C(O)SC1=Cc1ccc(C(=O)NC[C@@H]2C[C@@H](S(c3ccccc3)(c3ccccc3)c3ccccc3)CN2C(=O)c2ccccc2C(=O)c2ccc(F)cc2F)cc1` [N-[(2S,4R)-1-[2-(2,4-Difluoro-benzoyl)-benzoyl]-4-(triphenyl-lambda*4*-sulfanyl)-pyrrolidin-2-ylmethyl]-4-[2,4-dioxo-thiazolidin-(5Z)-ylidenemethyl]-benzamide], for which the IC50 turned out to be 4.2 nM. This IC50 lies about 39-fold lower than the previous one.

For orientation: IC50 means the concentration that inhibits the measured activity by half.
